Broadly, the melting point is the temperature, or range, at which the solid turns liquid. `O=C(c1ccccc1)N1CCC(c2ccccc2)(c2nccn2Cc2ccccc2)CC1` [Compound 2] came in with a melting point of 122.7 °C.

In the case of `CCOC(=O)N1CCC(c2ccccc2)(c2nccn2Cc2ccc(C(=O)OC)cc2)CC1` [Compound 3], the melting point amounted to 149.1 °C. As for `CCN/C(=N/C#N)N1CCC(c2ccccc2)(c2nccn2Cc2ccccc2)CC1` [Compound 4], the melting point stood at 84.2 °C. As for `CCOC(=O)N1CCC(c2ccccc2)(c2nccn2Cc2ccc(C(=O)O)cc2)CC1` [Compound 8], the melting point was 251.6 °C.

Source of the values: patent publication US7282508B2, “Substituted 4-phenyl-4-(1H-imidazol-2-yl)-piperidine derivatives and their use as selective non-peptide delta opioid agonists” (Janssen Pharmaceutica N.V., priority 2001, dated 2007).
